US20260297105A1, “RAF-MEK PROTEIN COMPLEX MODULATORS AND METHODS OF USE THEREOF” (GANDEEVA THERAPEUTICS, INC., priority 2023, published 2026)

Assays:
MEK1 = target: T1, MEK1 (Homo sapiens, UniProt Q02750); experiment: MEK1 kinase cascade assay (ADP-Glo), inhibition of MEK1 kinase activity; assay type: biochemical; conditions: 25 nM BRAF, 6.25 nM MEK1, 0.5 μM ERK, 1 mM ATP; 20 min preincubation, 1 hr at 25° C.; read-out: BRAF ADP Glo kinase assay V3 (IC50)
T1 construct: purchased SignalChem M02-14H
Outline: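 Compounds were preincubated 20 mins at 25° C with 25 nM BRAF(445-723) in 10 mM HEPES pH 7.5, 5 mM MgCl2, 2 mM CHAPS, 1 mM DTT, then 6.25 nM MEK1, 0.5 μM ERK1 and 1 mM ATP were added for 1 hr at 25° C, with 1% DMSO. ADP-Glo luminescence was normalized to DMSO and 1 μM Trametinib; IC50 came from 4-parameter fits of duplicates.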

BRAF-MEK1 = experiment: BRAF-MEK TR-FRET assay, stabilization of MEK1 and BRAF interaction; assay type: binding; conditions: 4 nM BRAF, 10 nM MEK, 100 μM ATP; 1 hr at 25° C.; read-out: BRAF-MEK TR-FRET Assay (EC50, fold stabilization)
Outline: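 His-MEK1 (full-length, E. coli) at 10 nM with GST-BRAF at 4 nM, 1 h at 25° C in pH 7.5 Tris buffer with 5 mM MgCl2 and 100 μM ATP; anti-His-Tb/anti-GST-XL665 added for 1 h more. 665/620 FRET ratio over DMSO gives fold stabilization; EC50 from 4-parameter fit, duplicate wells.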

p-ERK1/2 in HCT116 cells = experiment: AlphaLISA p-ERK assay, cellular inhibition of ERK phosphorylation in HCT116 cells; assay type: cell-based; conditions: Homo sapiens, HCT-116, 2 hours treatment, PMA stimulation 30 mins
Protocol: Cell culture: HCTI 16, HT-29, and NCI-H292 cells were acquired from American Type Culture Collection (ATCC). HCT116 and HT-29 cells were maintained in ATCC-formulated McCoy's 5a Medium Modified supplemented with 10% fetal bovine serum, NCI-H292 cells were cultured in ATCC formulated RPMI-1640 supplemented with 10% fetal bovine serum. All cells were maintained at 37° C., 5% CO2.
Efficacy of exemplary compounds in cellular inhibition of ERK phosphorylation: Phosphorylation status of ERK1/2 (p-ERK) was used as a readout for inhibition of BRAF-MEK pathway. p-ERK was detected using an immunoassay for quantitative detection of phospho-ERK 1/2 (phosphorylated on Thr202/Tyr204 in ERK1, or Thr185/Tyr187 in ERK2), such as the AlphaLISA® SureFire® Ultra™ p-ERK1/2 (Thr202/Tyr204) kit (Perkin Elmer). HCT116 cells were plated at 10,000 cells per well in 384-well TC-treated plates (Coming). Cells were plated for 24 hours, the medium was then aspirated and cells were treated with vehicle (DMSO) or test compounds (0.1% DMSO in final volume) prepared in serum free, phenol red free medium for 2 hours. Following treatment, cells were stimulated with PMA (1.25 μM/well) for 30 mins after which the medium was aspirated, and the cells were lysed for 10 mins with 1× lysis buffer supplemented with Halt Protease and Phosphatase Inhibitor Cocktail (Thermo Fisher). The lysate was transferred to a 384 well Alpha-plate (PerkinElmer) and incubated for 1 hour with acceptor bead mix followed by 1 hour incubation with donor bead mix. After incubation, the plate was read on a Cytation5 microplate reader (Agilent). % inhibition as a function of compound concentration from 3 replicate wells was fit with a 4-parameter logistic curve using GraphPad Prism or CDD Vault to derive IC50 values.
In this table, for the BRAF ADP Glo kinase assay, “A” indicates IC50 of less than 5 nM; “B” indicates IC50 of between 5 nM to 50 nM; and “C” indicates IC50 of between 50 nM to 500 nM. “D” indicates IC50 of greater than 500 nM. For the BRAF-MEK TR-FRET assay, “A” indicates EC50 of less than 50 nM; “B” indicates EC50 of between 50 nM to 200 nM; and “C” indicates EC50 of between 200 nM to 1 μM. “D′” indicates EC50 of greater than 1 μM. For the AlphaLisa P-ERK assay, “A” indicates IC50 of less than 1 nM; “B” indicates IC50 of between 1 nM to 10 nM; and “C” indicates IC50 of between 10 nM to 100 nM. “D” indicates IC50 of greater than 100 nM. For the cell viability assay, “A” indicates IC50 of less than 1 nM; “B” indicates IC50 of between 1 nM to 10 nM; and “C” indicates IC50 of between 10 nM to 100 nM. “D” indicates IC50 of greater than 100 nM.

NCI-H292 cells = experiment: Cell viability assay (CellTiter-Glo), NCI-H292; assay type: cell-based; conditions: Homo sapiens, 72 hrs, read-out: Cell Viability Assay: IC50 Determination NCI-H292
Outline: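 Cells seeded at 2,000 per well in RPMI-1640 with 10% FBS, treated 24 h later with compound (0.1% DMSO) for 72 h. Viability read by CellTiter-Glo luminescence; IC50 from 4-parameter logistic fit of % inhibition over 3 replicate wells.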

T1 sequence (Q02750 whole entry): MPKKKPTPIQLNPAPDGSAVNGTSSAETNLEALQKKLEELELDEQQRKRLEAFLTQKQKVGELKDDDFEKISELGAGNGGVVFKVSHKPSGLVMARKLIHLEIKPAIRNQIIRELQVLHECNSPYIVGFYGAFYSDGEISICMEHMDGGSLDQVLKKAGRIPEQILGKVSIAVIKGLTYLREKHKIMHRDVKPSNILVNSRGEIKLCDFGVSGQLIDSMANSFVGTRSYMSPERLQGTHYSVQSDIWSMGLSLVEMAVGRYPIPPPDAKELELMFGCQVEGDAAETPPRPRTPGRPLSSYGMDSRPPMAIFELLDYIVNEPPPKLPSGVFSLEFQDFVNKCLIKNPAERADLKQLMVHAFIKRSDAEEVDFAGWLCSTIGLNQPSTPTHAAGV
T1 sequence (P15056 445-723 partner limits assumed): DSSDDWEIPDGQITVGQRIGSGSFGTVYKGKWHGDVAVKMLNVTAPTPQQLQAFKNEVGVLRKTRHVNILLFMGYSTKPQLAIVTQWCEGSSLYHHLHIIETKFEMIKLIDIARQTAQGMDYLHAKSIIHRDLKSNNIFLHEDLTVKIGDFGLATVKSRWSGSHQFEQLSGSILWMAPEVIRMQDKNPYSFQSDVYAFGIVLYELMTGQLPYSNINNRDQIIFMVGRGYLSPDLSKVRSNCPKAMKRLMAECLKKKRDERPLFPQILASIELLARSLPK

SMILES | IC50 (MEK1) | EC50 (BRAF-MEK1) | IC50 (p-ERK1/2 in HCT116 cells) | IC50 (NCI-H292 cells)
CN(C)S(=O)(=O)Nc1cccc(CN2C(=O)Oc3c(ccc(Oc4cccnn4)c3F)C23COC3)c1F [Compound 40, 3-({3-[(dimethylsulfamoyl)amino]-2-fluorophenyl}methyl)-8-fluoro-7-(pyridazin-3-yloxy)-2,3-dihydrospiro[1,3-benzoxazine-4,3′-oxetan]-2-one] | 5 to 50 nM | 50 to 200 nM | 10 to 100 nM | 1 to 10 nM
CNS(=O)(=O)Nc1cccc(CN2C(=O)Oc3cc(Oc4cccnn4)ccc3C23CCC3)c1F [Compound 41, 3-({2-fluoro-3-[(methylsulfamoyl)amino]phenyl}methyl)-7-(pyridazin-3-yloxy)-2,3-dihydrospiro[1,3-benzoxazine-4,1′-cyclobutan]-2-one] | < 5 nM | < 50 nM | 1 to 10 nM | 1 to 10 nM
CNS(=O)(=O)Nc1cccc(CN2C(=O)Oc3c(ccc(Oc4cccnn4)c3F)C23COC3)c1F [Compound 42] | < 5 nM | 50 to 200 nM | 1 to 10 nM | 1 to 10 nM
[2H]C1([2H])c2ccc(Oc3cccnn3)cc2OC(=O)N1Cc1cccc(NS(=O)(=O)NC)c1F [Compound 52, 3-{[2-fluoro-3-(methylaminosulfonylamino)phenyl]methyl}-7-(3-pyridazinyloxy)(4,4-^2H2)-3,4-dihydro-2H-1,3-benzoxazin-2-one] | 5 to 50 nM | 50 to 200 nM | 1 to 10 nM | 1 to 10 nM
O=C1Oc2cc(Oc3cccnn3)c(F)cc2C2(COC2)N1Cc1cccc(NS(=O)(=O)C2CC2)c1F [Compound 53, N-(2-fluoro-3-{[6-fluoro-2-oxo-7-(pyridazin-3-yloxy)-2,3-dihydrospiro[1,3-benzoxazine-4,3′-oxetan]-3-yl]methyl}phenyl)cyclopropanesulfonamide] | 5 to 50 nM | 50 to 200 nM | 10 to 100 nM | 1 to 10 nM
CNS(=O)(=O)Nc1cccc(CN2C(=O)Oc3cc(Oc4cccnn4)c(F)cc3C23COC3)c1F [Compound 58, 6-fluoro-3-({2-fluoro-3-[(methylsulfamoyl)amino]phenyl}methyl)-7-(pyridazin-3-yloxy)-2,3-dihydrospiro[1,3-benzoxazine-4,3′-oxetan]-2-one] | < 5 nM | < 50 nM | < 1 nM | < 1 nM
CNS(=O)(=O)Nc1cccc(CN2C(=O)Oc3cc(Oc4cccnn4)cc(F)c3C23COC3)c1F [Compound 63] | 5 to 50 nM | 50 to 200 nM | 1 to 10 nM | 1 to 10 nM
CN(C)S(=O)(=O)Nc1cccc(CN2C(=O)Oc3cc(Oc4cccnn4)ccc3C23COC3)c1F [Compound 64, 3-({3-[(dimethylsulfamoyl)amino]-2-fluorophenyl}methyl)-7-(pyridazin-3-yloxy)-2,3-dihydrospiro[1,3-benzoxazine-4,3′-oxetan]-2-one] | < 5 nM | 50 to 200 nM | 1 to 10 nM | 1 to 10 nM
CNS(=O)(=O)Nc1nccc(CN2C(=O)Oc3cc(Oc4ncco4)ccc3C23COC3)c1F [Compound 68, 3-({3-fluoro-2-[(methylsulfamoyl)amino]pyridin-4-yl}methyl)-7-(1,3-oxazol-2-yloxy)-2,3-dihydrospiro[1,3-benzoxazine-4,3′-oxetan]-2-one] | 5 to 50 nM | 50 to 200 nM | 10 to 100 nM | 1 to 10 nM
CNS(=O)(=O)Nc1cccc(CN2Cc3ccc(Oc4ncco4)cc3OC2=O)c1F [Compound 80, 3-({2-fluoro-3-[(methylsulfamoyl)amino]phenyl}methyl)-7-(1,3-oxazol-2-yloxy)-3,4-dihydro-2H-1,3-benzoxazin-2-one] | 5 to 50 nM | 200 to 1000 nM | 10 to 100 nM | 1 to 10 nM
CNS(=O)(=O)Nc1cccc(CN2C(=O)Oc3cc(Oc4cccnn4)ccc3C23COC3)c1F [Compound 81, 3-({2-fluoro-3-[(methylsulfamoyl)amino]phenyl}methyl)-7-(pyridazin-3-yloxy)-2,3-dihydrospiro[1,3-benzoxazine-4,3′-oxetan]-2-one] | < 5 nM | 50 to 200 nM | 1 to 10 nM | 1 to 10 nM
CNS(=O)(=O)Nc1cccc(CN2C(=O)Oc3c(ccc(Oc4ncco4)c3F)C23COC3)c1F [Compound 82] | < 5 nM | 200 to 1000 nM | 1 to 10 nM | 1 to 10 nM
CNS(=O)(=O)Nc1cccc(CN2C(=O)Oc3cc(Oc4ncco4)ccc3C23COC3)c1F [Compound 95, 3-({2-fluoro-3-[(methylsulfamoyl)amino]phenyl}methyl)-7-(1,3-oxazol-2-yloxy)-2,3-dihydrospiro[1,3-benzoxazine-4,3′-oxetan]-2-one] | < 5 nM | 50 to 200 nM | 1 to 10 nM | 1 to 10 nM
CNS(=O)(=O)Nc1cccc(CN2Cc3ccc(Oc4cccnn4)cc3OC2=O)c1F [Compound 105, 3-({2-fluoro-3-[(methylsulfamoyl)amino]phenyl}methyl)-7-(pyridazin-3-yloxy)-3,4-dihydro-2H-1,3-benzoxazin-2-one] | < 5 nM | < 50 nM | 1 to 10 nM | 1 to 10 nM
CNS(=O)(=O)Nc1cccc(CN2C(=O)Oc3cc(OC(=O)N(C)C)ccc3C23COC3)c1F [Compound 115, 3-({2-fluoro-3-[(methylsulfamoyl)amino]phenyl}methyl)-2-oxo-2,3-dihydrospiro[1,3-benzoxazine-4,3′-oxetan]-7-yl N,N-dimethylcarbamate] | < 5 nM | 50 to 200 nM | 1 to 10 nM | < 1 nM
CNS(=O)(=O)Nc1cccc(CN2Cc3c(F)cc(Oc4ncccn4)cc3OC2=O)c1F [Compound 117] | 5 to 50 nM | 200 to 1000 nM | 1 to 10 nM | 10 to 100 nM
CNS(=O)(=O)Nc1cccc(CN2Cc3c(F)cc(OC(=O)N(C)C)cc3OC2=O)c1F [Compound 118, 5-fluoro-3-(2-fluoro-3-((N-methylsulfamoyl)amino)benzyl)-2-oxo-3,4-dihydro-2H-benzo[e][1,3]oxazin-7-yl dimethylcarbamate] | < 5 nM | 50 to 200 nM | 1 to 10 nM | < 1 nM
CNS(=O)(=O)Nc1cccc(CN2Cc3ccc(OC(=O)N(C)C)c(F)c3OC2=O)c1F [Compound 131, 8-fluoro-3-(2-fluoro-3-((N-methylsulfamoyl)amino)benzyl)-2-oxo-3,4-dihydro-2H-benzo[e][1,3]oxazin-7-yl dimethylcarbamate] | < 5 nM | 50 to 200 nM | 1 to 10 nM | 1 to 10 nM
